Test results published in paper PMC6429214, “Design, Synthesis and Biological Evaluation of Isoxazole-Based CK1 Inhibitors Modified with Chiral Pyrrolidine Scaffolds” (Molecules, 2019).

Tests used:
Assay in all cases: 33PanQinase panel
Format in all cases: biochemical
ABL2 = target: T1, ABL2 (Homo sapiens, UniProt P42684); conditions: ABL2, 1 µM; read-out: Residual Activity (%)
T1 construct: purchased ProQinase
How it was run: (§1)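 Residual activity (%) relative to DMSO control was measured by radiometric 33P-based kinase activity assay with inhibitor at 1 µM and 1% final DMSO, across 320 wild-type kinases.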

ASK1 = target: T2, ASK1 (Homo sapiens, UniProt Q99683); conditions: ASK1, 1 µM; read-out: Residual Activity (%)
T2 construct: purchased ProQinase
How it was run: as §1

CDK3/CycC = target: T3, CDK3/CycC (Homo sapiens, UniProt Q00526); conditions: read-out: Residual Activity (%)
T3 construct: purchased ProQinase
How it was run: as §1

CDK5/p25NCK = target: T4, CDK5/p25NCK (Homo sapiens, UniProt Q00535); conditions: read-out: Residual Activity (%)
T4 construct: purchased ProQinase
How it was run: as §1

CDK8/CycC = target: T5, CDK8/CycC (Homo sapiens, UniProt P49336); conditions: read-out: Residual Activity (%)
T5 construct: purchased ProQinase
How it was run: as §1

CDK9/CycT1 = target: T6, CDK9/CycT1 (Homo sapiens, UniProt P50750); conditions: CDK9/CycT1, 1 µM; read-out: Residual Activity (%)
T6 construct: purchased ProQinase
How it was run: as §1

CLK1 = target: T7, CLK1 (Homo sapiens, UniProt P49759); conditions: CLK1, 1 µM; read-out: Residual Activity (%)
T7 construct: purchased ProQinase
How it was run: as §1

EPHA1 = target: T8, EPHA1 (Homo sapiens, UniProt P21709); conditions: EPHA1, 1 µM; read-out: Residual Activity (%)
T8 construct: purchased ProQinase
How it was run: as §1

EPHB3 = target: T9, EPHB3 (Homo sapiens, UniProt P54753); conditions: EPHB3, 1 µM; read-out: Residual Activity (%)
T9 construct: purchased ProQinase
How it was run: as §1

IRAK4 (untagged) = target: T10, IRAK4 (untagged) (Homo sapiens, UniProt Q9NWZ3); conditions: read-out: Residual Activity (%)
T10 construct: purchased ProQinase
How it was run: as §1

MAP3K10 = target: T11, MAP3K10 (Homo sapiens, UniProt Q02779); conditions: MAP3K10, 1 µM; read-out: Residual Activity (%)
T11 construct: purchased ProQinase
How it was run: as §1

MAP4K2 = target: T12, MAP4K2 (Homo sapiens, UniProt Q12851); conditions: MAP4K2, 1 µM; read-out: Residual Activity (%)
T12 construct: purchased ProQinase
How it was run: as §1

MEK2 = target: T13, MEK2 (Homo sapiens, UniProt P36507); conditions: MEK2, 1 µM; read-out: Residual Activity (%)
T13 construct: purchased ProQinase
How it was run: as §1

MELK = target: T14, MELK (Homo sapiens, UniProt Q14680); conditions: read-out: Residual Activity (%)
T14 construct: purchased ProQinase
How it was run: as §1

MERTK = target: T15, MERTK (Homo sapiens, UniProt Q12866); conditions: read-out: Residual Activity (%)
T15 construct: purchased ProQinase
How it was run: as §1

MKK7 = target: T16, MKK7 (Homo sapiens, UniProt O14733); conditions: MKK7, 1 µM; read-out: Residual Activity (%)
T16 construct: purchased ProQinase
How it was run: as §1

MKNK1 = target: T17, MKNK1 (Homo sapiens, UniProt Q9BUB5); conditions: MKNK1, 1 µM; read-out: Residual Activity (%)
T17 construct: purchased ProQinase
How it was run: as §1

NEK2 = target: T18, NEK2 (Homo sapiens, UniProt P51955); conditions: NEK2, 1 µM; read-out: Residual Activity (%)
T18 construct: purchased ProQinase
How it was run: as §1

NEK9 = target: T19, NEK9 (Homo sapiens, UniProt Q8TD19); conditions: NEK9, 1 µM; read-out: Residual Activity (%)
T19 construct: purchased ProQinase
How it was run: as §1

NIK = target: T20, NIK (Homo sapiens, UniProt Q99558); conditions: read-out: Residual Activity (%)
T20 construct: purchased ProQinase
How it was run: as §1

PKC-beta2 = target: T21, PKC-beta2 (Homo sapiens, UniProt P05771); conditions: PKC-beta2, 1 µM; read-out: Residual Activity (%)
T21 construct: purchased ProQinase
How it was run: as §1

PRK1 = target: T22, PRK1 (Homo sapiens, UniProt Q16512); conditions: PRK1, 1 µM; read-out: Residual Activity (%)
T22 construct: purchased ProQinase
How it was run: as §1

S6K-beta = target: T23, S6K-beta (Homo sapiens, UniProt Q9UBS0); conditions: read-out: Residual Activity (%)
T23 construct: purchased ProQinase
How it was run: as §1

SAK = target: T24, SAK (Homo sapiens, UniProt O00444); conditions: read-out: Residual Activity (%)
T24 construct: purchased ProQinase
How it was run: as §1

SIK2 = target: T25, SIK2 (Homo sapiens, UniProt Q9H0K1); conditions: SIK2, 1 µM; read-out: Residual Activity (%)
T25 construct: purchased ProQinase
How it was run: as §1

STK33 = target: T26, STK33 (Homo sapiens, UniProt Q9BYT3); conditions: STK33, 1 µM; read-out: Residual Activity (%)
T26 construct: purchased ProQinase
How it was run: as §1

TTBK1 = target: T27, TTBK1 (Homo sapiens, UniProt Q5TCY1); conditions: TTBK1, 1 µM; read-out: Residual Activity (%)
T27 construct: purchased ProQinase
How it was run: as §1

T20 sequence (Q99558 whole entry): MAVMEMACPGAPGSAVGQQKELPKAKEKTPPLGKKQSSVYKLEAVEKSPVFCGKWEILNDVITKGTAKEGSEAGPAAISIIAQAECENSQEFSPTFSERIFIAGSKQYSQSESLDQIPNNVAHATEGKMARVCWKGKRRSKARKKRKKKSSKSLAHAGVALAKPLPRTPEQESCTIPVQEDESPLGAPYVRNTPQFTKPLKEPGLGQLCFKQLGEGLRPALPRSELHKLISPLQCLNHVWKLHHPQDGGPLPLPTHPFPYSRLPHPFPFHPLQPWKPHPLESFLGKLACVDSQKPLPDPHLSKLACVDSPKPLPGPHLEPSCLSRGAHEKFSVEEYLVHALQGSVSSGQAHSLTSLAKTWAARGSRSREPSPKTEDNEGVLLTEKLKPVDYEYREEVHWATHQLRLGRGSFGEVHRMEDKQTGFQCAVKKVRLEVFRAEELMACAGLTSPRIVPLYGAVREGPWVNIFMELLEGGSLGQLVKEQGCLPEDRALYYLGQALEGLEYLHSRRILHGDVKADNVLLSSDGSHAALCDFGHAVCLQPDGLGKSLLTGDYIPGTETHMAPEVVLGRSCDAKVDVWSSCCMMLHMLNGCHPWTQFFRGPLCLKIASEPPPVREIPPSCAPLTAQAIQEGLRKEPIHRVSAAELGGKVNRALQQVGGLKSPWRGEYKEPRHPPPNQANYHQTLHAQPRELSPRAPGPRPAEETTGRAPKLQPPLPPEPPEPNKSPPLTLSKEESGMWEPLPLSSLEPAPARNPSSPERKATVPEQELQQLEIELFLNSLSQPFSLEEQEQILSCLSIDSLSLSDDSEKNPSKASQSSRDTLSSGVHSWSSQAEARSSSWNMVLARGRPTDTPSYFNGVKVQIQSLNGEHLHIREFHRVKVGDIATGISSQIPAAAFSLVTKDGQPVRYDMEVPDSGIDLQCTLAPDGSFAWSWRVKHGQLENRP
T6 sequence (P50750 whole entry): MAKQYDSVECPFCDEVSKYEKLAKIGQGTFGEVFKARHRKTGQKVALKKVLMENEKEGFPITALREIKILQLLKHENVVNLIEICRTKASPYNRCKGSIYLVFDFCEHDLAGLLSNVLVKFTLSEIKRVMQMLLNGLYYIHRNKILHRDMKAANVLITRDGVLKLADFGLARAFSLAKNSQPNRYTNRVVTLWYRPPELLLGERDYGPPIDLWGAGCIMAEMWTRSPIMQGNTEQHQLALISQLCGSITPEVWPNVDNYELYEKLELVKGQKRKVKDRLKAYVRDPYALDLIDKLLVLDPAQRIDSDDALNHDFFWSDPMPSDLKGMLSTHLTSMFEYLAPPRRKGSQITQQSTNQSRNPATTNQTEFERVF
T6 sequence (O60563 whole entry partner): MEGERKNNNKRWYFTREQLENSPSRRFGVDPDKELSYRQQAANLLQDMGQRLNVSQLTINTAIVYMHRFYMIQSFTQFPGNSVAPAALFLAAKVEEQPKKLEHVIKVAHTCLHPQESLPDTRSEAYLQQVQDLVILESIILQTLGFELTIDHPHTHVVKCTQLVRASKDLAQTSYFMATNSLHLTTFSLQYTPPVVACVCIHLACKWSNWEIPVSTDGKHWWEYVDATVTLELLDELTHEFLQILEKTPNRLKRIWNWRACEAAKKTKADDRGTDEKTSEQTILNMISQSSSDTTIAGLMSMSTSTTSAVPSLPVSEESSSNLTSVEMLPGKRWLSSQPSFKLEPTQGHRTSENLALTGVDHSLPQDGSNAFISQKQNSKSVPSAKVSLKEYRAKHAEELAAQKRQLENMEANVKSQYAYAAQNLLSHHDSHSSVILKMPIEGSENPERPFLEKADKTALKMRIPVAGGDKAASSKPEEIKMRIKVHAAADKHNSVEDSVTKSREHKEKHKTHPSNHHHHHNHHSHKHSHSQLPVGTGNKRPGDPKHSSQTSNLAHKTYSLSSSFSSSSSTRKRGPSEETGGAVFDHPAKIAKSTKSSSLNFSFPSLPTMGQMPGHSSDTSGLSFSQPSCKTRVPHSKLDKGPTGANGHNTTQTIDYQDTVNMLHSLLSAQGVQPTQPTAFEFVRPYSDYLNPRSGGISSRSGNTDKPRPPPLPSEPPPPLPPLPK
T11 sequence (Q02779 whole entry): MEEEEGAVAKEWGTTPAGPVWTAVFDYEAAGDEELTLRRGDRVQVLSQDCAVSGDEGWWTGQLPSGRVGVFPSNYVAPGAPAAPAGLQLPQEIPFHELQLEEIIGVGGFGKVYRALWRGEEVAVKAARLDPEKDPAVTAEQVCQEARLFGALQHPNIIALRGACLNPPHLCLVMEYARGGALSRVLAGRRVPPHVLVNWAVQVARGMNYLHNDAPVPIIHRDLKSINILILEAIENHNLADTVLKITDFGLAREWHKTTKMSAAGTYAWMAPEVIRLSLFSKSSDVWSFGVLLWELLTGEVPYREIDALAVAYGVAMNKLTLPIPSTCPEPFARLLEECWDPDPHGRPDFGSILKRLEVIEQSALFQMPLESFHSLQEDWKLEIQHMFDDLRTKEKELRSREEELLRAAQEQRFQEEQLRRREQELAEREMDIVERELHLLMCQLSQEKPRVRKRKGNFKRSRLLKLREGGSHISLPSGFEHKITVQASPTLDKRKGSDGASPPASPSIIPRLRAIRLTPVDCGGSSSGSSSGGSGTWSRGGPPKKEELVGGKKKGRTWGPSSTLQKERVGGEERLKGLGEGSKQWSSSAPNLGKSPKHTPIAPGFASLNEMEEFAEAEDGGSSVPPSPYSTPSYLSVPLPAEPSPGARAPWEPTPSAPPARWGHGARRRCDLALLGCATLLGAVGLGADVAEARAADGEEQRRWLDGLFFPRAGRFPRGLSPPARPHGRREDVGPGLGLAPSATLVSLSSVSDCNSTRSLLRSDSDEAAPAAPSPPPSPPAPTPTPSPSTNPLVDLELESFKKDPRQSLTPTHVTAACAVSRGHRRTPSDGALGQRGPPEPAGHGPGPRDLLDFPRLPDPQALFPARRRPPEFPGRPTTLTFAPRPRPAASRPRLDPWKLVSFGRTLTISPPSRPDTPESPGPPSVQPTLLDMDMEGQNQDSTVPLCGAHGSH
T21 sequence (P05771 1-673 isoform P05771-2): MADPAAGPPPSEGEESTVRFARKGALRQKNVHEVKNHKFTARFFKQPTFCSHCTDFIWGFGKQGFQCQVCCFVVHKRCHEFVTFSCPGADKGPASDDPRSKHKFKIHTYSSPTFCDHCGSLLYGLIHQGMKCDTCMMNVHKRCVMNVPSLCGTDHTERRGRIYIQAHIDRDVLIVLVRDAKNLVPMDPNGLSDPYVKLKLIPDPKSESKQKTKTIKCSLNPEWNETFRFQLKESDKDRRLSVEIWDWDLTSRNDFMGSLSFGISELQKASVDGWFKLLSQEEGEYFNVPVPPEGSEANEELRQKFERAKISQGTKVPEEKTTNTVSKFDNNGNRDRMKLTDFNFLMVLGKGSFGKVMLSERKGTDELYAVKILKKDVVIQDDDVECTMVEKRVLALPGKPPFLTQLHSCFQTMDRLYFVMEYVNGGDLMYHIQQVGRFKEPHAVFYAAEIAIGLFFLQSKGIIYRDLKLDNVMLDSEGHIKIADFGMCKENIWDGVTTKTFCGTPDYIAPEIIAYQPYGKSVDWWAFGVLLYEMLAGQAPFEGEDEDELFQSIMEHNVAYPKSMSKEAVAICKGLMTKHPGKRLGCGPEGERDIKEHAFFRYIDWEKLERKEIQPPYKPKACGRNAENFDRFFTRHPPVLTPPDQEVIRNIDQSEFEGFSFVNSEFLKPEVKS
T15 sequence (Q12866 21-999): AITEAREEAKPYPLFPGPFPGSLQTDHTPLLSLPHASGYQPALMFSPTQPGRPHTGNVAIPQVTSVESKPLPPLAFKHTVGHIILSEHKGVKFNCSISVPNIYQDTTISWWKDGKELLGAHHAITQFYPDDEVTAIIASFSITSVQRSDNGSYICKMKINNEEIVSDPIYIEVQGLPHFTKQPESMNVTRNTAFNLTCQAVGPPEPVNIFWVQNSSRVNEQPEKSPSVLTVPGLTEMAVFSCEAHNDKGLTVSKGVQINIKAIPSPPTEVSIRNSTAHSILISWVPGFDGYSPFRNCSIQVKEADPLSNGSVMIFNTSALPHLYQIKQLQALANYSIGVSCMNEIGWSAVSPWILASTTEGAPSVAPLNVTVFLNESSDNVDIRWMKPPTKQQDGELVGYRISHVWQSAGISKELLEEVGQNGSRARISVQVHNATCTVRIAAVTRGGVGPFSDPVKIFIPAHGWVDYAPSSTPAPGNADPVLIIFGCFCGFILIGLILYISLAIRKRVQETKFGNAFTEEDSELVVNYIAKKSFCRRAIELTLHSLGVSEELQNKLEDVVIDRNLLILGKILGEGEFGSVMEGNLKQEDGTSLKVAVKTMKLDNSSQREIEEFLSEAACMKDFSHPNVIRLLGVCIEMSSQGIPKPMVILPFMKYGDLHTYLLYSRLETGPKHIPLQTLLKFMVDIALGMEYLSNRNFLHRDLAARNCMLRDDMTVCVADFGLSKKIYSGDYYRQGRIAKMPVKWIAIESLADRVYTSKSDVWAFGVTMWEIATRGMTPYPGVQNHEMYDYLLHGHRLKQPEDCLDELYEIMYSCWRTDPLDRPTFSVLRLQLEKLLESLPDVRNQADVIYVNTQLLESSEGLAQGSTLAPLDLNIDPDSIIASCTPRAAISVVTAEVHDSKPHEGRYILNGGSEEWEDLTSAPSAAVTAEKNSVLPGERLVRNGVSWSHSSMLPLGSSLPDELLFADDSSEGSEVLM
T16 sequence (O14733 whole entry): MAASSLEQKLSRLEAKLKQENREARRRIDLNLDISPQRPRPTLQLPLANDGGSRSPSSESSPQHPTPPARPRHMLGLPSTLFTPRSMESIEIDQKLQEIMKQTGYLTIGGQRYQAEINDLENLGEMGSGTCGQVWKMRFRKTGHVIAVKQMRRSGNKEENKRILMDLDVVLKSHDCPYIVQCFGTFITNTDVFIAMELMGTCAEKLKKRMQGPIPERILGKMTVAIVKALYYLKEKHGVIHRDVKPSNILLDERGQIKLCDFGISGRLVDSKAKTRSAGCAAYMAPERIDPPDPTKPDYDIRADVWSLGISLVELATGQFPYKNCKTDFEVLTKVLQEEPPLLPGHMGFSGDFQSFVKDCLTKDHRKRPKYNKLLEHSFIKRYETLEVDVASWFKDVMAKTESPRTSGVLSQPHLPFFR

COc1ccc(-c2cc(C(=O)Nc3cc(-c4c(-c5ccc(F)cc5)noc4C(C)C)ccn3)n(CC3NCC(O)C3O)c2)cc1 (stereo not drawn) [29d]
remaining activity at 1 µM (ABL2): 110%
remaining activity at 1 µM (ASK1): 107%
remaining activity at 1 µM (CDK3/CycC): 100%
remaining activity at 1 µM (CDK5/p25NCK): 92%
remaining activity at 1 µM (CDK8/CycC): 106%
remaining activity at 1 µM (CDK9/CycT1): 103%
remaining activity at 1 µM (CLK1): 97%
remaining activity at 1 µM (EPHA1): 120%
remaining activity at 1 µM (EPHB3): 138%
remaining activity at 1 µM (IRAK4 (untagged)): 89%
remaining activity at 1 µM (MAP3K10): 120%
remaining activity at 1 µM (MAP4K2): 93%
remaining activity at 1 µM (MEK2): 108%
remaining activity at 1 µM (MELK): 107%
remaining activity at 1 µM (MERTK): 76%
remaining activity at 1 µM (MKK7): 95%
remaining activity at 1 µM (MKNK1): 82%
remaining activity at 1 µM (NEK2): 89%
remaining activity at 1 µM (NEK9): 91%
remaining activity at 1 µM (NIK): 98%
remaining activity at 1 µM (PKC-beta2): 118%
remaining activity at 1 µM (PRK1): 94%
remaining activity at 1 µM (S6K-beta): 96%
remaining activity at 1 µM (SAK): 92%
remaining activity at 1 µM (SIK2): 98%
remaining activity at 1 µM (STK33): 84%
remaining activity at 1 µM (TTBK1): 104%
